From patent US20060281736A1, “Product comprising at least one phosphatase cdc25 inhibitor combined with at least one other anticancer agent” (priority 2003, published 2006)
Structures can show the parent of a compound that is named as a salt.

The compounds below were run on Mia-PaCa2 (human pancreas cancer cells) (assay: Antiproliferative activity on Mia-Paca2 cells (WST1)). Settings: MIA PaCa-2, 96 hours treatment, read-out: IC50 on the cell proliferation of Mia-Paca2 lines.
Assay type: cell-based
Description: ii) Characterization of the Antiproliferative Activity:
By way of example, the effect of a treatment on two human cell lines Mia-Paca2 and DU145 with the compounds of the examples described previously will be studied. The cell lines DU145 (human prostate cancer cells) and Mia-PaCa2 (human pancreas cancer cells) were acquired from the American Tissue Culture Collection (Rockville, Md., USA). The cells placed in 80 μl of Dulbecco's Modified Eagle's medium (Gibco-Brl, Cergy-Pontoise, France) completed with 10% foetal calf serum inactivated by heating (Gibco-Brl, Cergy-Pontoise, France), 50,000 units/l of penicillin and 50 mg/l of streptomycin (Gibco-Brl, Cergy-Pontoise, France), and 2 mM of glutamine (Gibco-Brl, Cergy-Pontoise, France) were seeded on a 96-well plate on day 0. The cells were treated on day 1 for 96 hours with increasing concentrations of each of the compounds to be tested up to 10 μM. At the end of this period, quantification of cell proliferation is evaluated by a colorimetric test based on the cleavage of the tetrazolium salt WST1 by the mitochondrial dehydrogenases in viable cells leading to the formation of formazan (Boehringer Mannheim, Meylan, France). These tests are carried out in duplicate with 8 determinations per concentration tested. For each compound to be tested, the values included in the linear part of the sigmoid were retained for a linear regression analysis and used to estimate the inhibitory concentration IC50. The products are solubilized in dimethylsulphoxide (DMSO) at 10^−2 M and finally used in culture with 0.1% DMSO.
In the case of CCCCCC(CC)NC1=CC(=O)c2sc(C)nc2C1=O (stereo not drawn) [Example 6, 5-[(1-ethylhexyl)amino]-2-methyl-1,3-benzothiazole-4,7-dione], the IC50 is reported as ≤ 10 µM.
Cc1nc2c(s1)C(=O)C=C(NC1CCc3ccccc31)C2=O (stereo not drawn) [Example 28, 5-(2,3-dihydro-1H-inden-1-ylamino)-2-methyl-1,3-benzothiazole-4,7-dione] was tested, and the IC50 was ≤ 10 µM.
For CN(C)CCNC1=CC(=O)c2sc(CN3CCCCC3)nc2C1=O [Example 39, 5-{[2-(dimethylamino)ethyl]amino}-2-(piperidin-1-ylmethyl)-1,3-benzothiazole-4,7-dione], the IC50 was ≤ 10 µM.
In the case of Cc1nc2c(s1)C(=O)C=C(NCCN(C)C)C2=O [Example 2, 5-{[2-(dimethylamino)ethyl]amino}-2-methyl-1,3-benzothiazole-4,7-dione hydrochloride], the IC50 is reported as ≤ 10 µM.
In the case of Cc1nc2c(s1)C(=O)C=C(N1CCN(Cc3ccccc3)CC1)C2=O [Example 14, 5-(4-benzyl-1-piperazinyl)-2-methyl-1,3-benzothiazole-4,7-dione], the IC50 is reported as ≤ 10 µM.
In the case of Cc1nc2c(s1)C(=O)C=C(NCCC1CCCN1C)C2=O (stereo not drawn) [Example 24, 2-methyl-5-{[2-(1-methylpyrrolidin-2-yl)ethyl]amino}-1,3-benzothiazole-4,7-dione], the IC50 is reported as ≤ 10 µM.
COCCNC1=CC(=O)c2sc(C)nc2C1=O [Example 18, 5-[(2-methoxyethyl)amino]-2-methyl-1,3-benzothiazole-4,7-dione] was tested, and the IC50 was ≤ 10 µM.
With CCCCSC1=C(NCCN(C)C)C(=O)c2nc(C)sc2C1=O [Example 36, 6-(butylthio)-5-{[2-(dimethylamino)ethyl]amino}-2-methyl-1,3-benzothiazole-4,7-dione] the IC50 was ≤ 10 µM.
With Cc1nc2c(s1)C(=O)C=C(NCCN1CCCCC1)C2=O [Example 20, 2-methyl-5-[(2-piperidin-1-ylethyl)amino]-1,3-benzothiazole-4,7-dione] the IC50 was ≤ 10 µM.
In the case of Cc1nc2c(s1)C(=O)C=C(NCCCN1CCCCC1C)C2=O (stereo not drawn) [Example 25, 2-methyl-5-{[3-(2-methylpiperidin-1-yl)propyl]amino)-1,3-benzothiazole-4,7-dione], the IC50 is reported as ≤ 10 µM.
In the case of Cc1nc2c(s1)C(=O)C=C(NCCCCCCN(C)C)C2=O [Example 3, 5-{[6-(dimethylamino)hexyl]amino}-2-methyl-1,3-benzothiazole-4,7-dione], the IC50 is reported as ≤ 10 µM.
Cc1nc2c(s1)C(=O)C=C(NCCCN1CCN(C)CC1)C2=O [Example 5, 2-methyl-5-{[3-(4-methyl-1-piperazinyl)propyl]amino}-1,3-benzothiazole-4,7-dione] was tested, and the IC50 was ≤ 10 µM.
In the case of Cc1nc2c(s1)C(=O)C=C(NCCCN(C)C(=O)OC(C)(C)C)C2=O [Example 30, tert-butyl methyl{3-[(2-methyl-4,7-dioxo-4,7-dihydro-1,3-benzothiazol-5-yl)amino]propyl}carbamate], the IC50 is reported as ≤ 10 µM.
With Cc1nc2c(s1)C(=O)C=C(NCCCNC(=O)OC(C)(C)C)C2=O [Example 31, tert-butyl 3-[(2-methyl-4,7-dioxo-4,7-dihydro-1,3-benzothiazol-5-yl)amino]propylcarbamate] the IC50 was ≤ 10 µM.
With Cc1nc2c(s1)C(=O)C=C(NCCCCN(C)C)C2=O [Example 26, 5-{[4-(dimethylamino)butyl]amino}-2-methyl-1,3-benzothiazole-4,7-dione] the IC50 was ≤ 10 µM.
In the case of Cc1nc2c(s1)C(=O)C=C(N(CCN(C)C)Cc1ccccc1)C2=O [Example 29, 5-{benzyl[2-(dimethylamino)ethyl]amino}-2-methyl-1,3-benzothiazole-4,7-dione], the IC50 is reported as ≤ 10 µM.
In the case of Cc1nc2c(s1)C(=O)C=C(NCc1cccc(Cl)c1)C2=O [Example 9, 5-[(3-chlorobenzyl)amino]-2-methyl-1,3-benzothiazole-4,7-dione], the IC50 is reported as ≤ 10 µM.
For Cc1nc2c(s1)C(=O)C(Cl)=C(NCCN(C)C)C2=O [Example 34, 6-chloro-5-{[2-(dimethylamino)ethyl]amino}-2-methyl-1,3-benzothiazole-4,7-dione], the IC50 was ≤ 10 µM.
In the case of CN(C)CCNC1=CC(=O)c2sc(CN3CCOCC3)nc2C1=O [Example 37, 5-{[2-(dimethylamino)ethyl]amino}-2-(morpholin-4-ylmethyl)-1,3-benzothiazole-4,7-dione], the IC50 is reported as ≤ 10 µM.
Cc1nc2c(s1)C(=O)C=C(NCCN1CCCC1)C2=O [Example 19, 2-methyl-5-[(2-pyrrolidin-1-ylethyl)amino]-1,3-benzothiazole-4,7-dione] was tested, and the IC50 was ≤ 10 µM.
With CN(C)CCNC1=CC(=O)c2sc(CN3CCN(c4ccccc4)CC3)nc2C1=O [Example 38, 5-{1[2-(dimethylamino)ethyl]amino}-2-[(4-phenylpiperazin-1-yl)methyl]-1,3-benzothiazole-4,7-dione] the IC50 was ≤ 10 µM.
For Cc1nc2c(s1)C(=O)C=C(NCCCCCN(C)C)C2=O [Example 27, 5-{[5-(dimethylamino)pentyl]amino}-2-methyl-1,3-benzothiazole-4,7-dione], the IC50 was ≤ 10 µM.
In the case of Cc1nc2c(s1)C(=O)C=C(NCC(C)(C)CN(C)C)C2=O [Example 4, 5-{[3-(dimethylamino)-2,2-dimethylpropyl]amino}-2-methyl-1,3-benzothiazole-4,7-dione], the IC50 is reported as ≤ 10 µM.
In the case of Cc1nc2c(s1)C(=O)C=C(NC1CCN(Cc3ccccc3)C1)C2=O (stereo not drawn) [Example 22, 5-[(1-benzylpyrrolidin-3-yl)amino]-2-methyl-1,3-benzothiazole-4,7-dione], the IC50 is reported as ≤ 10 µM.
Cc1nc2c(s1)C(=O)C=C(NCCN1CCOCC1)C2=O [Example 1, 2-methyl-5-{[2-(4-morpholinyl)ethyl]amino}-1,3-benzothiazole-4,7-dione] was tested, and the IC50 was ≤ 10 µM.
With Cc1nc2c(s1)C(=O)C=C(NCC13CC4CC(CC(C4)C1)C3)C2=O [Example 7, 5-[(1-adamantylmethyl)amino]-2-methyl-1,3-benzothiazole-4,7-dione] the IC50 was ≤ 10 µM.
With CNCCCNC1=CC(=O)c2sc(C)nc2C1=O [Example 32, 2-methyl-5-{[3-(methylamino)propyl]amino}-1,3-benzothiazole-4,7-dione hydrochloride] the IC50 was ≤ 10 µM.
For Cc1nc2c(s1)C(=O)C=C(NCc1cccs1)C2=O [Example 8, 2-methyl-5-[(2-thienylmethyl)amino]-1,3-benzothiazole-4,7-dione], the IC50 was ≤ 10 µM.
With Cc1nc2c(s1)C(=O)C=C(NCCN(C(C)C)C(C)C)C2=O [Example 21, 5-{[2-(diisopropylamino)ethyl]amino}-2-methyl-1,3-benzothiazole-4,7-dione] the IC50 was ≤ 10 µM.
For Cc1nc2c(s1)C(=O)C=C(NCCCN(C)C)C2=O [Example 23, 5-{[3-(dimethylamino)propyl]amino}-2-methyl-1,3-benzothiazole-4,7-dione], the IC50 was ≤ 10 µM.
